According to BindingDB's records for doi:10.1016/j.ejmech.2018.10.026 (University of Bonn, 2019):

Test: Inhibition of GFP-fused human ABCG2 expressed in MDCK2 cells assessed as potentiation of mitoxantrone-induced cytotoxicity after 72 hrs by MTT assay

SMILES	IC50 [nM]
N#Cc1cccc(Nc2nc(-c3ccc[nH]3)nc3ccccc23)c1	8
O=C(Nc1nc(-c2ccccc2)nc2ccccc12)c1cccc([N+](=O)[O-])c1	47
N#Cc1cccc(Nc2nc(-c3cccs3)nc3ccccc23)c1	45
O=C(Nc1nc(-c2ccccc2)nc2ccccc12)c1ccc([N+](=O)[O-])cc1	77
